From patent publication US6074626A (Molecular Radiation Management, Inc., priority 1999, dated 2000)
Where “and” joins values, the source holds several entries; their conditions need not be identical. Equal values may be shown once.

Columns and labels:
[1] = tested on: viable hepatoma; assay: Diagnostic quantitation of tumor uptake by ^195m cisplatinum gamma camera imaging after HAI; assay type: in vivo, patients
Description: (§1) The rationale for HAI cisplatinum was evaluated in a diagnostic quantitative study trial utilizing radioactive ^195m cisplatinum. The radiopharmaceutical was prepared using a ^194 Pt target and irradiation from neutron flux in a fission reactor (45,46). […] The study was approved by the institutional review board and radiation safety committee of Cooper Hospital University Medical Center for use of up to a 1.0 mCi dose of ^195m cisplatinum, delivered intra-arterially. Institutional Review Board approved informed consent documents were signed by all patients participating in this study.
Platinum-195m is a radionuclide with a physical half-life of 4.02 days. As it decays by isomeric transition it emits several photons imageable by scintillation camera. Six patients were imaged thirty minutes after administration of ^195m cisplatinum (252-1011 μCi) using a dual-head gamma camera system equipped with low-energy parallel-hole collimators. The camera was peaked at 76 keV with an energy window setting of 37%. […] Tumors and normal liver containing Pt-195m uptake were identified and appropriate regions of interest drawn. The method used for quantitation of the radioactivity utilized conjugate view images (180° opposed anterior and posterior planar images). Prior to patient studies a phantom study was performed under fixed geometry to determine a correction factor for patient attenuation and scatter and a system calibration factor. The phantom consisted of a simulated tumor containing 277.5 μCi of Pt-195m in an abdominal phantom filled with water to simulate patient attenuation and scatter. […] The activities determined from the conjugate view counting technique were divided by the administered activity and multiplied by 100 to obtain the percent tumor uptakes. Tumor-to-normal liver ratios were determined from the various regions of interest.
(§2) Because of a high response rate to intra-arterial cisplatinum compared to intravenous delivery a study was done to estimate whether there was a differential tumor uptake of cisplatinum. Patients were given similar tracer doses of ^195m cisplatinum, first intravenously then by HAI. It was estimated that the maximum dose for this diagnostic quantitative trial would be 1.0 mCi, which would yield an estimated absorbed dose no greater than 5 centigray to the kidneys and therefore not cause toxicity. […] FIG. 6 is an example of their gamma camera study done the same day following the intra-arterial injection of 1.0 mCi ^195 Pt cisplatinum. […] Table 4 summarizes the data for this diagnostic quantitative trial following HAI of ^195m cisplatinum. As shown, the mean tumor uptake was 48.4% (range 34.2-55.4%) of the given activity and the mean ratio of tumor-to-liver uptake was 2.1 (range 1.6-2.4).

[2] = tested on: tumor (hepatoma); assay: Scintigraphic scans of 195^m cisplatin given intravenously and intra-arterially to the same patient; assay type: in vivo
Text: When the drug was given intravenously,less than five percent deposited in the tumor. When the drug was given intra-arterially, 35 to 40 percent of the drug deposited in the tumor, as witnessed by scintigraphic scans.
as §2

[3] = Safety of ^195m cisplatinum given by HAI; assay type: in vivo; settings: six patients
Description: as §1
as §2, with “As shown, the mean tumor uptake was 48.4% (range 34.2-55.4%) of the given activity and the mean ratio of tumor-to-liver uptake was 2.1 (range 1.6-2.4).” left out

[4] = tested on: hepatocellular carcinoma; settings: subcutaneously; untreated controls 4 months; cited from earlier work
[5] = tested on: hepatoma; settings: given systemically; cited from earlier work
[6] = tested on: non-resectable hepatocellular carcinoma; assay: Remission and survival of hepatoma patients treated monthly with hepatic artery infusion (HAI) of cisplatinum at 50 mg/m^2; assay type: in vivo; design: median survival, increase over the six months reported from other regimens: unit not given here; settings: for survival: one patient
Text: Patient population: All patients were required to have histologic documentation of hepatocellular carcinoma. Pre-treatment evaluation included a complete medical history and physical examination, hepatitis virus status and complete blood cell counts, biochemical survey including lactate dehydrogenase, alkaline phosphatase, BUN, creatinine, bilirubin, PT/PTT and alpha fetoprotein (AFP) level; radiographic studies including CT scans of the chest, abdomen and pelvis with volumetric reconstruction of both tumor and normal liver volumes allowed determination of percentage of liver replacement by tumor. The presence of ascites was determined using both clinical examination and imaging results. Excluded were patients with a creatinine >1.5 and/or BUN >25. All patients gave written informed consent. Prior to referral to our facility 23 patients (34%) had multiple chemotherapeutic regimens. Of the 67 patients, 44 (65%) were treated with external beam radiation to the involved liver as a component of the prescribed treatment program. Assessment of liver function was done using the modified Childs-Pugh classification (41). The American Joint Committee on Cancer staging system was used to stage tumor extent in all patients (42). […]
Intrahepatic arterial chemotherapy: The infusion was performed either with a temporary percutaneous femoral or axillary artery catheter or implanted port or pump. On the day prior to treatment the patients were instructed to take 1 to 2 liters of fluid orally. On admission, 1 liter of 5% dextrose in normal saline with 20 meq potassium was given intravenously. Utilizing a femoral or axillary artery transcutaneous approach an arteriogram of the common hepatic artery was done. Next, cisplatinum 50 mg/m^2 was dissolved to a concentration of 1 mg per ml of sterile water. The solution was then infused intra-arterially at a rate of 1 mg/minute. The chemotherapy was always infused into the most distal artery feeding the main mass of the tumor. Appropriate antiemetic therapy, generally Odansetron 0.15 mg/kg IV and dexamethasone 20 mg IV was administered before the cisplatinum infusion and as needed after the infusion. On discharge home patients were given an oral antiemetic regimen of Lorazepam 1 mg, every six hours, or Odansetron 8 mg every twelve hours, as needed and Dexamethasone 4 mg every six hours for one day. Patients continued monthly HAI of cisplatinum until evidence of progressive disease or death. All patients were assessable for response.
Assessment of response: Routine clinical examinations and laboratory testing were performed at monthly intervals or as clinically indicated. The defined improvements on a minimum of two CT scans and/or AFP titers obtained at least two months apart were required to delineate response. Tumor volumes were quantified by computed tomography scan volumetric analysis of the liver as previously reported (20,43). Complete remission was the disappearance of all clinical evidence of tumor for a minimum of one month. Partial remission was a decrease of 50% or more in the volume of all measurable lesions measured on contrast-enhanced CT scan or a ≥50% reduction in AFP titer. Stable disease was a <50% decrease or <25% increase in tumor volume or AFP titer. Progressive disease was the increase of at least 25% in the tumor volume of all measurable lesions on CT scan or by AFP titer. Toxicity was assessed monthly during HAI therapy using RTOG criteria (44) with scores ≥3 considered to be major toxicities.
Statistical methods: The log-rank procedure was used to test for any statistical differences in survival distribution between patient populations (47). Survival curves were generated by the Kaplan Meier technique (48). Each survival curve was plotted as a step function of the Kaplan-Meier estimates.
Intra-arterial hepatic infusions were given to 67 patients with non-resectable hepatocellular carcinoma treated between July 1991 and September 1997. […]

[7] = tested on: non-resectable hepatocellular carcinoma; assay: as above; assay type: in vivo; settings: intra-arterial, 50 mg/m^2, 28 patients
[8] = tested on: hepatocellular carcinoma; settings: intravenous, cited from earlier work
[9] = HAI, per patient (b206-b211 = patients 1-6), thirty minutes after administration
[10] = intra-arterial, tracer quantities
[11] = HAI after failing previous therapy, disease confined to liver, AFP (+)
[12] = HAI after failing previous therapy, disease confined to liver, AFP (-)

Question: For `[NH2][195Pt]([NH2])([Cl])[Cl]` [^195m cisplatinum], which “concentration in viable hepatoma (imaging)” value ([1]; HAI) is on record?
Answer: The value was “hyperconcentration”.

Question: What about the Tumor uptake [1, 9] of the same compound?
Answer: The Tumor uptake was 55.4% and 49.6% and 52.8% and 48.3% and 34.2% and 50.3%.

Question: What about the Tumor-to-liver uptake ratio [1, 9] of the same compound?
Answer: Its Tumor-to-liver uptake ratio is 1.6 and 2.3 and 2.4 and 2.1 and 2.0.

Question: What about the Tumor activity ([1]; HAI, per patient (b206-b211 = patients 1-6), thirty minutes after administration, administered 252-1011 μCi) of the same compound?
Answer: Its Tumor activity is 140 μCi and 501 μCi and 528 μCi and 489 μCi and 343 μCi and 503 μCi.

Question: And the “mean ratio of tumor-to-liver uptake” value ([1]; HAI, six patients)?
Answer: The value was 2.1.

Question: What about the “mean tumor uptake of the given activity” value ([1]; HAI, six patients) of the same compound?
Answer: The value was 48.4%.

Question: And the “range of ratio of tumor-to-liver uptake” value ([1]; HAI, six patients)?
Answer: The value was 1.6-2.4.

Question: What about the “range of tumor uptake of the given activity” value ([1]; HAI, six patients) of the same compound?
Answer: The value was 34.2-55.4%.

Question: What about the “exposure of the tumor vs intravenous route” value ([1]; intra-arterial, tracer amounts) of the same compound?
Answer: Its value is “selectively exposes the tumor to higher drug levels than can be achieved by the intravenous route”.

Question: And the kinetics [1, 10]?
Answer: Its kinetics is “first-pass kinetics”.

Question: And the selective tumor uptake [1, 10]?
Answer: Its selective tumor uptake is 34-55 % of administered dose.

Question: And the “drug deposited in the tumor” value ([2]; intravenous)?
Answer: The value was “less than five”.

Question: And the adverse events [3]?
Answer: The adverse events was “no adverse events occurred”.

Question: With `C[C@@H](O)[C@@H]1NC(=O)[C@H](CCCCN)NC(=O)[C@@H](Cc2c[nH]c3ccccc23)NC(=O)[C@H](Cc2ccccc2)NC(=O)[C@@H](NC(=O)[C@H](N)Cc2ccccc2)CSSC[C@@H](C(=O)N[C@H](CO)[C@@H](C)O)NC1=O` [octreotide] as the compound, how does the median survival [4] read?
Answer: Its median survival is 13 months.

Question: With `CO[C@@]12[C@H](COC(N)=O)C3=C(C(=O)C(C)=C(N)C3=O)N1C[C@@H]1N[C@@H]12` [mitomycin] as the compound, how does the effectiveness [5] read?
Answer: Its effectiveness is “inconsistently effective”.

Question: Which effectiveness [5] does the source give for `O=c1[nH]cc(F)c(=O)[nH]1` [5-FU, 5-fluorouracil] here?
Answer: Its effectiveness is “inconsistently effective”.

Question: Which median survival ([6]; AFP positive patients, as compared with octreotide study) does the source give for `N.N.[Cl][Pt][Cl]` [cisplatin, cisdiamminedichloroplatinum] here?
Answer: The median survival was 12 months.

Question: And the “alive at one year” value [6, 11]?
Answer: Its value is 56%.

Question: And the median survival [6, 11]?
Answer: Its median survival is 17.3 months.

Question: What about the “alive at one year” value [6, 12] of the same compound?
Answer: The value was 75%.

Question: What about the median survival [6, 12] of the same compound?
Answer: Its median survival is 46.3 months.

Question: What about the median survival ([6]; HAI after prior treatment failure, extra-hepatic metastases, AFP (+)/elevated) of the same compound?
Answer: The median survival was 8.9 months.

Question: What about the median survival ([6]; HAI after prior treatment failure, extra-hepatic metastases, AFP (-)/not elevated) of the same compound?
Answer: Its median survival is 11.1 months.

Question: And the median survival ([6]; HAI as primary therapy, disease confined to liver, AFP (+))?
Answer: The median survival was 12.0 months.

Question: What about the median survival ([6]; HAI as primary therapy, disease confined to liver, AFP (-)) of the same compound?
Answer: The median survival was 17.5 months.

Question: What about the median survival ([6]; HAI as primary therapy, extra-hepatic metastases, AFP (+)/elevated) of the same compound?
Answer: The median survival was 7.1 months.

Question: And the survival ([6]; HAI as primary therapy, extra-hepatic metastases, AFP (-)/not elevated, listed as HAI-CDDP)?
Answer: The survival was 21.0 months.

Question: What about the survival ([6]; HAI as primary therapy, extra-hepatic metastases, AFP (-)/not elevated, listed as cisplatinum) of the same compound?
Answer: The survival was 21 months.

Question: And the long term remission ([6]; HAI, 50 mg/m^2)?
Answer: Its long term remission is “long term remission can be obtained”.

Question: What about the median survival ([6]; HAI, AFP (+), all patients) of the same compound?
Answer: Its median survival is 10.3 months.

Question: What about the “overall survival at one year” value ([6]; HAI, AFP (+), all patients) of the same compound?
Answer: Its value is 45%.

Question: What about the “overall survival at one year” value ([6]; HAI, AFP (-), all patients) of the same compound?
Answer: Its value is 59%.

Question: What about the median survival ([6]; HAI, AFP (-), all patients, listed as cisplatinum) of the same compound?
Answer: Its median survival is 21.8 months and 21 months.

Question: What about the median survival ([6]; HAI, chronic Hepatitis B or C, regardless of AFP status) of the same compound?
Answer: The median survival was 10.7 months.

Question: And the “significance of overall survival difference AFP (+) vs AFP (-)” value ([6]; HAI, log rank)?
Answer: The value was “significantly different”.

Question: And the overall median survival ([6]; HAI, present study group)?
Answer: Its overall median survival is 10.3 months.

Question: And the response rate ([6]; arterial route)?
Answer: Its response rate is at least 50%.

Question: And the response ([6]; intra-arterial, 67 patients)?
Answer: Its response is 50%.

Question: And the remission ([6]; intra-arterial, 95 patients combined)?
Answer: Its remission is 50%.

Question: What about the “median survival, increase over the six months reported from other regimens” value ([6]; worst group of hepatomas (AFP+ positive), intra-arterial) of the same compound?
Answer: The value was “one”.

Question: What about the “binding on the hepatoma, persistence” value ([2]; intra-arterial) of the same compound?
Answer: Its value is “apparently stays there for a persistent period of time”.

Question: And the remission [7]?
Answer: The remission was 50%.

Question: And the response rate [8]?
Answer: The response rate was “less than five”.

Question: And the “response rate (in words)” value ([8]; single drug)?
Answer: Its value is “relatively poor response rate”.
